From patent US12281102B2, “Inhibitors of APOL1 and methods of using same” (Vertex Pharmaceuticals Incorporated, priority 2020, dated 2025) come the findings set out here.

pIC50: −log10 of the molar value.

For the experiment, the target named is T1, G1 APOL1 (Homo sapiens, UniProt O14791, I384M/S342G).
T1 construct: expressed in transfected cells
T1 sequence (O14791 28-398 S342G/I384M): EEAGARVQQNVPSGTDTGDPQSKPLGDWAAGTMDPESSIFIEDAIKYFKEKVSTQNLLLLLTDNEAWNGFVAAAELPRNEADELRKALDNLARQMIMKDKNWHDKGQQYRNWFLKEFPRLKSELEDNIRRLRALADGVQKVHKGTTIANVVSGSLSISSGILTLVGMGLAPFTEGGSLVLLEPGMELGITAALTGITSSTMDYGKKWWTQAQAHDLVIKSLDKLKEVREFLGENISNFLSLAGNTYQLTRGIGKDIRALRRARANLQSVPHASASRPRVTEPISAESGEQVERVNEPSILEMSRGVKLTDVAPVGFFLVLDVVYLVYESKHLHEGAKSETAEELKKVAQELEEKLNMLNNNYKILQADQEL
The experiment in a line: Acute APOL1 Thallium Assay with inducible stable clones of HEK 293 cells. It is filed as cell-based. The settings on record: HEK 293 T-Rex inducible stable clone expressing G1 APOL1; read-out: Thallium Assay (IC50). The essentials:
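A tetracycline-inducible HEK293 T-Rex clone (G1 DC3.25) expressing G1 APOL1 was plated at 26,000 cells/well, with tetracycline added at plating to induce expression. Cells were loaded with an AM-ester thallium-sensitive dye and stimulated with Tl+. Pore activity was read as the FLIPR Tetra fluorescence increase from Tl+ influx.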

Consider `O=C1NCCC1C(=O)NC[C@H]1C[C@@H](c2c(-c3ccc(F)cc3)[nH]c3c(F)cc(F)cc32)C1` (stereo partly drawn) [Compound 303], for which the pIC50 is < 6.00.

Take `Cc1nccn1CC(=O)N[C@H]1C[C@H](c2c(-c3ccc(F)cc3)[nH]c3c(F)cc(F)cc32)C1` [Compound 126]: the pIC50 was < 6.00. Take `CN(CC(=O)NC[C@H]1C[C@@H](c2c(-c3ccc(F)cc3)[nH]c3c(F)cc(F)cc32)C1)S(C)(=O)=O` [Compound 305]: the pIC50 is < 6.00. To `O=C(NC[C@H]1C[C@H](c2c(-c3ccc(F)cc3)[nH]c3c(F)cc(F)cc32)C1)[C@H]1NCC[C@H]1O` [Compound 229] belongs < 6.00; to `O=C(NC[C@H]1C[C@H](c2c(-c3ccc(F)cc3)[nH]c3c(F)cc(F)cc32)C1)C(F)F` [Compound 200], > 6.60. To `Cn1ccc(CC(=O)NC[C@H]2C[C@@H](c3c(-c4ccc(F)cc4)[nH]c4c(F)cc(F)cc43)C2)n1` [Compound 278] belongs < 6.00; to `O=C1CC(C(=O)NC2CC(Cc3c(-c4ccc(F)cc4)[nH]c4c(F)cc(F)cc34)C2)C(=O)N1` (stereo not drawn) [Compound 167], < 6.00; to `COC1(CC(=O)N[C@H]2C[C@@H](c3c(-c4ccc(F)cc4)[nH]c4c(F)cc(F)cc43)C2)CCC1` [Compound 37], < 6.00. Regarding `Cn1ccc(CC(=O)N[C@H]2C[C@H](c3c(-c4ccc(F)cc4)[nH]c4c(F)cc(F)cc43)C2)n1` [Compound 106], the pIC50 was 6.00 to 6.60. With `O=C(CO)NC[C@H]1C[C@@H](c2c(-c3ccc(F)cc3)[nH]c3c(F)cc(F)cc32)C1` [Compound 210], the pIC50 was 6.00 to 6.60. With `O=C1C=C(NC[C@H]2C[C@H](c3c(-c4ccc(F)cc4)[nH]c4c(F)cc(F)cc43)C2)C(=O)N1` [Compound 421, 3-((((1r,3r)-3-(5,7-difluoro-2-(4-fluorophenyl)-1H-indol-3-yl)cyclobutyl)methyl)amino)-1H-pyrrole-2,5-dione] the figure was < 6.00; with `O=C(CN1CCCC1)N[C@H]1C[C@@H](c2c(-c3ccc(F)cc3)[nH]c3c(F)cc(F)cc32)C1` [Compound 46], < 6.00; with `O=C(NC[C@H]1C[C@H](c2c(-c3ccc(F)cc3)[nH]c3c(F)cc(F)cc32)C1)c1ccc(=O)[nH]c1` [Compound 304], < 6.00.

Consider `O=C(NC[C@H]1C[C@H](c2c(-c3ccc(F)cc3)[nH]c3c(F)cc(F)cc32)C1)[C@H]1CCCN1` [Compound 282], for which the pIC50 was < 6.00.

Regarding `NC(=O)C1(C(=O)NC[C@H]2C[C@H](c3c(-c4ccc(F)cc4)[nH]c4c(F)cc(F)cc43)C2)CC1` [Compound 452], the pIC50 was < 6.00. To `CC[C@@H](CO)NCC1CC(c2c(-c3ccc(F)cc3)[nH]c3c(F)cc(F)cc23)C1` (stereo partly drawn) [Compound 395] belongs < 6.00. On to `NC(=O)CC(=O)NC1CC(Cc2c(-c3ccc(F)cc3)[nH]c3c(F)cc(F)cc23)C1` (stereo not drawn) [Compound 165], for which the pIC50 is < 6.00.

Consider `CC(C(=O)NC[C@H]1C[C@@H](c2c(-c3ccc(F)cc3)[nH]c3c(F)cc(F)cc32)C1)N(C)C` (mixture of isomers) [Compound 281], for which the pIC50 was < 6.00. For `O=S(=O)(N[C@H]1C[C@H](c2c(-c3ccc(F)cc3)[nH]c3c(F)cc(F)cc32)C1)c1n[nH]c2ncccc12` [Compound 154], the pIC50 is < 6.00. To `C[C@@H](CO)NS(=O)(=O)NC[C@H]1C[C@H](c2c(-c3ccc(F)cc3)[nH]c3c(F)cc(F)cc32)C1` [Compound 338] belongs 6.00 to 6.60; to `O=C(NC[C@H]1C[C@H](c2c(-c3ccc(F)cc3)[nH]c3c(F)cc(F)cc32)C1)c1ccn[nH]1` [Compound 292], < 6.00; to `NC(=O)C1(C(=O)N[C@H]2C[C@H](c3c(-c4ccc(F)cc4)[nH]c4c(F)cc(F)cc43)C2)CC1` [Compound 446, N^1′-[3-[5,7-difluoro-2-(4-fluorophenyl)-1H-indol-3-yl]cyclobutyl]cyclopropane-1,1-dicarboxamide], 6.00 to 6.60. To `O=C1NCCN1C[C@H]1C[C@H](c2c(-c3ccc(F)cc3)[nH]c3c(F)cc(F)cc32)C1` [Compound 373, 1-(((1r,3r)-3-(5,7-difluoro-2-(4-fluorophenyl)-1H-indol-3-yl)cyclobutyl)methyl)imidazolidin-2-one] belongs > 6.60; to `O=C(NC[C@H]1C[C@@H](c2c(-c3ccc(F)cc3)[nH]c3c(F)cc(F)cc32)C1)C1CCO1` (stereo partly drawn) [Compound 220], 6.00 to 6.60; to `CC(C)S(=O)(=O)N[C@H]1C[C@H](c2c(-c3ccc(F)cc3)[nH]c3c(F)cc(F)cc32)C1` [Compound 149], 6.00 to 6.60. To `C[C@@H](O)[C@@H](CO)NS(=O)(=O)NC[C@H]1C[C@H](c2c(-c3ccc(F)cc3)[nH]c3c(F)cc(F)cc32)C1` [Compound 363] belongs < 6.00; to `C[C@@H](N)C(=O)NC[C@H]1C[C@H](c2c(-c3ccc(F)cc3)[nH]c3c(F)cc(F)cc32)C1` [Compound 236], < 6.00.

Turning to `CN(C1COC1)C1CC(c2c(-c3ccc(F)cc3)[nH]c3c(F)cc(F)cc23)C1` (stereo not drawn) [Compound 24], the pIC50 is < 6.00. As for `O=C(CCN1CCCC1=O)N[C@H]1C[C@@H](c2c(-c3ccc(F)cc3)[nH]c3c(F)cc(F)cc32)C1` [Compound 48], the pIC50 was < 6.00. With `O=C(CC1CCCOC1)NC[C@H]1C[C@@H](c2c(-c3ccc(F)cc3)[nH]c3c(F)cc(F)cc32)C1` (stereo partly drawn) [Compound 323] the figure was < 6.00; with `CC(O)CCNS(=O)(=O)NC[C@H]1C[C@H](c2c(-c3ccc(F)cc3)[nH]c3c(F)cc(F)cc32)C1` (stereo partly drawn) [Compound 356], 6.00 to 6.60. As for `CNCCC(=O)N[C@H]1C[C@H](c2c(-c3ccc(F)cc3)[nH]c3c(F)cc(F)cc32)C1` [Compound 134], the pIC50 is 6.00 to 6.60. With `O=C1NCC[C@@H]1NCC1CC(c2c(-c3ccc(F)cc3)[nH]c3c(F)cc(F)cc23)C1` (stereo partly drawn) [Compound 400] the figure was < 6.00; with `COCCC(=O)N[C@H]1C[C@@H](c2c(-c3ccc(F)cc3)[nH]c3c(F)cc(F)cc32)C1` [Compound 62], < 6.00; with `N[C@@H](C(=O)NC[C@H]1C[C@H](c2c(-c3ccc(F)cc3)[nH]c3c(F)cc(F)cc32)C1)C1CC1` [Compound 264], < 6.00. With `O=C(NC[C@H]1C[C@@H](c2c(-c3ccc(F)cc3)[nH]c3c(F)cc(F)cc32)C1)C(O)C1CC1` (stereo partly drawn) [Compound 247] the figure was < 6.00; with `CC(C)(O)C(=O)N[C@H]1C[C@H](c2c(-c3ccc(F)cc3)[nH]c3c(F)cc(F)cc32)C1` [Compound 133], > 6.60. Consider `O=S(=O)(N[C@H]1C[C@@H](c2c(-c3ccc(F)cc3)[nH]c3c(F)cc(F)cc32)C1)C1COC1` [Compound 83], for which the pIC50 was < 6.00. Take `CC(C)(C)OC(=O)NCC(=O)NC[C@H]1C[C@H](c2c(-c3ccc(F)cc3)[nH]c3c(F)cc(F)cc32)C1` [Compound 215]: the pIC50 was 6.00 to 6.60.

`NC[C@]1(O)C[C@@H](c2c(-c3ccc(F)cc3)[nH]c3c(F)cc(F)cc32)C1` [Compound 430, (1s,3s)-1-(aminomethyl)-3-(5,7-difluoro-2-(4-fluorophenyl)-1H-indol-3-yl)cyclobutan-1-ol]: the pIC50 is 6.00 to 6.60. `CC1(C)CCC(C(=O)N[C@H]2C[C@@H](c3c(-c4ccc(F)cc4)[nH]c4c(F)cc(F)cc43)C2)N1` (stereo partly drawn) [Compound 64]: the pIC50 was < 6.00. Take `O=C1CC(C(=O)N[C@H]2C[C@@H](c3c(-c4ccc(F)cc4)[nH]c4c(F)cc(F)cc43)C2)CC(=O)N1` [Compound 70]: the pIC50 is < 6.00.

`Cc1ccc(C(=O)NC2CC(Cc3c(-c4ccc(F)cc4)[nH]c4c(F)cc(F)cc34)C2)[nH]1` (stereo not drawn) [Compound 172]: the pIC50 was < 6.00.

As to `N[C@H]1C[C@H](Cc2c(-c3ccc(F)cc3)[nH]c3c(F)cc(F)cc23)C1` [Compound 157, trans-3-[[5,7-difluoro-2-(4-fluorophenyl)-1H-indol-3-yl]methyl]cyclobutanamine], the pIC50 was > 6.60.

On to `NC(=O)CNC(=O)C1CC(Cc2c(-c3ccc(F)cc3)[nH]c3c(F)cc(F)cc23)C1` (stereo not drawn) [Compound 449, N-(2-amino-2-oxoethyl)-3-((5,7-difluoro-2-(4-fluorophenyl)-1H-indol-3-yl)methyl)cyclobutane-1-carboxamide], for which the pIC50 is < 6.00. With `CC(C)(O)C(=O)NC1CC(c2c(-c3ccc(F)cc3)[nH]c3c(F)cc(C(F)(F)F)cc23)C1` (mixture of isomers) [Compound 3, N-[3-[7-fluoro-2-(4-fluorophenyl)-5-(trifluoromethyl)-1H-indol-3-yl]cyclobutyl]-2-hydroxy-2-methyl-propanamide] the figure was 6.00 to 6.60; with `CC(=O)NCC(=O)NC[C@H]1C[C@H](c2c(-c3ccc(F)cc3)[nH]c3c(F)cc(F)cc32)C1` [Compound 250], < 6.00; with `O=C(CN1CCCC1)N[C@H]1C[C@H](c2c(-c3ccc(F)cc3)[nH]c3c(F)cc(F)cc32)C1` [Compound 112], < 6.00. With `Cc1cc(-c2[nH]c3c(F)cc(F)cc3c2C2CC(CN)C2)ccc1F` (stereo not drawn) [Compound 179] the figure was > 6.60; with `O=C(NC[C@H]1C[C@H](c2c(-c3ccc(F)cc3)[nH]c3c(F)cc(F)cc32)C1)c1ccn[nH]c1=O` [Compound 312], < 6.00. With `O=C(CC1CC(F)(F)C1)N[C@H]1C[C@@H](c2c(-c3ccc(F)cc3)[nH]c3c(F)cc(F)cc32)C1` [Compound 31] the figure was < 6.00.

Usually pIC50 stands for the IC50 on a negative log10 scale, so that one unit is a factor of ten.
